The values that follow come from patent EP1057825A1, “ISOFLAVANE DERIVATIVES AND IMMUNOPOTENTIATING COMPOSITIONS CONTAINING THE SAME” (SHIONOGI & CO., LTD., priority 1998, dated 1999).

For one assay, the system named is mouse spleen cells. The experiment in a line: Action on the blastogenesis of mouse spleen cells (ConA-stimulated, MTT reduction method). The format is cell-based, BALB/c mouse. The following applies: Mus musculus, 72 h, ConA 1 µg/ml, 3 days, rate against no test compound = one. The method, then:
Serial two-fold dilutions (100 µl/well) with 10% FBS of test compounds which are dissolved in a dimethyl sulfoxide (DMSO) solution are obtained on a 96-well microplate, and used as test samples.
The spleen of a BALB/c mouse is aseptically isolated, and gently ground on a wire mesh with dropwise addition of sterilzed saline. The filtrate is passed through a nylon mesh (Becton Dickinson; pore size: 70 µm), thereby preparing a unicellular suspension.
After being washed twice with sterilized saline, the spleen cells are suspended in RPMI1460 containing 10% FCS and containing 1 µg/ml of concanavalin A (abbreviated as ConA: Sigma, U.S.) as well as an antibiotic (Sigma: Antibiotic Antimycotic), and dispensed into a 96-well microplate, in which 100 µl each of diluted test samples are previously dispensed, in amounts of 3 × 10^5 cells/100 µl/well.
Thereafter, culturing is carried out under 5% carbon dioxide gas at 37°C for 3 days, and then the blastogenesis of lymphocytes is measured by an MTT reduction method [Mosmann T, Journal of Immunological Method, vol. 65, p. 55, 1983]. The blastogenesis rate can be quantitated as a rate against the blastogenesis of those not having test compounds added thereto, which is defined as one. The presence of an immunoactivating action can be determined if the blastogenesis rate exceeds one.
Serial two-fold dilutions (100 µl/well) with RPMI1640 (Nikken Biomedical Laboratory) containing 10% FBS (bovine fetal serum: Dainippon Pharmaceutical Co., Ltd.) of test compounds which were dissoloved in a dimethylsulfoxide (DMSO) solution were obtained on a 96-well microplate, and used as test samples.
The spleen of a BALB/c mouse (a 6 week-old female) was aseptically isolated, and gently ground on a wire mesh with dropwise addition of sterilzed saline. The filtrate was passed through a nylon mesh (Becton Dickinson; pore size: 70 µm), thereby preparing a unicellular suspension.
After being washed twice with sterilized saline, the spleen cells were suspended in RPMI1460 containing 10% FCS and containing 1 µg/ml of concanavalin A (abbreviated as ConA: Sigma, U.S.) as well as an antibiotic (Sigma: Antibiotic Antimycotic), and dispensed into a 96-well microplate, in which 100 µl each of diluted test samples had previously been dispensed, in amounts of 3×10^5 cells/100 µl/well.
Thereafter, culturing was carried out under 5% carbon dioxide gas at 37°C for 3 days, and then the blastogenesis of lymphocytes was measured by an MTT reduction method [Mosmann T, Journal of Immunological Method, vol. 65, p. 55, 1983]. The results are shown in [Table 4].

In the next assay the test system is mouse bone marrow cells. The experiment in a line: Metabolism promoting action on mouse bone marrow cells (mitochondrial metabolism activity, MTT reduction method). Type of assay: cell-based, BALB/c mouse. The following applies: Mus musculus, Bone marrow cell, 120 h, 5 days, magnitude of metabolism, no test compound = one. The source says:
The presence of an immunoactivating action can be determined if the magnitude of metabolism exceeds one, where the cellular metabolism of cells not having test compounds added thereto is defined as one.

For `COc1c(C2COc3cc(O)c(CC=C(C)C)c(OC)c3C2)ccc(O)c1CC=C(C)C` (stereo not shown) [A-8, 3-(4-hydroxy-2-methoxy-3-(3-methyl-2-butenyl)-phenyl)-3,4-dihydro-5-methoxy-7-hydroxy-6-(3-methyl-2-butenyl)-2H-1-benzopyran], the activity at 0.1 µg/mL in the assay with mouse spleen cells (concentration of additions in medium 0.1 μg/ml) was found to be 111%. Also, the activity at 0.2 µg/mL with mouse spleen cells (concentration of additions in medium 0.2 μg/ml) stood at 99%. For the same molecule, the activity at 0.39 µg/mL in the assay with mouse spleen cells (concentration of additions in medium 0.39 μg/ml) is 112%; in the assay with mouse bone marrow cells (Test compound concentration 0.39 µg/ml), 113%. Besides, the activity at 0.78 µg/mL was 122% in the assay on mouse spleen cells (concentration of additions in medium 0.78 μg/ml) and 127% with mouse bone marrow cells (Test compound concentration 0.78 µg/ml). The activity at 1.56 µg/mL with mouse spleen cells (concentration of additions in medium 1.56 μg/ml) came to 103%; in the assay on mouse bone marrow cells (Test compound concentration 1.56 µg/ml), 161%. Also, the activity at 3.13 µg/mL with mouse spleen cells (concentration of additions in medium 3.13 μg/ml) was 34%; with mouse bone marrow cells (Test compound concentration 3.13 µg/ml), 156%. The figures for the activity at 6.25 µg/mL in the assay with mouse spleen cells (concentration of additions in medium 6.25 μg/ml) and in the assay on mouse bone marrow cells (Test compound concentration 6.25 µg/ml) were 23% and 50%, respectively. Also, the activity at 12.5 µg/mL with mouse bone marrow cells (Test compound concentration 12.5 µg/ml) was 51%.
